Experiment [1] concerns multiple myeloma (MM) model. Briefly: multiple myeloma (MM) model, cells selected for growth in bone. It is filed as in vivo. An excerpt: FIG. 19 is a representation of the results of generating a multiple myeloma (MM) model, that was created by selecting cells with affinity for growth in bone.
In experiment [2] the test system is 32D/p210-Luc cells. Briefly: CML model, 32D/p210-Luc cells imaged in vivo. More on the design: species or system mice. An excerpt: FIG. 21 is a representation showing the results of a CML model used to evaluate the ABL-inhibitor AMN107.
The subject of experiment [3] is TS(4;11)-LucNeo cells. Briefly: in vivo bioluminescence imaging of mice bearing MLL leukemia cell line TS(4;11), drug treatment. From the text: FIG. 15 is a pictorial representation of treatment of mice bearing MLL leukemia cell line TS(4;11) with the FLT3 inhibitor PKC-412.

Three compounds from patent US7732658B2, “Composition and method for imaging cells” (Dana Farber Cancer Institute, Inc., priority 2002, dated 2010) can be followed below.

As to `Nc1ncnc2c1c(-c1cccc(OCc3ccccc3)c1)cn2C1CC(CN2CCCC2)C1` (stereo not drawn) [ADW], the tumor burden result in experiment [1] (FIG. 19) is given as “reduction of tumor burden”. In experiment [1] (FIG. 20), the “survival as compared to untreated control” value was “positively correlated with survival”.
Take `Cc1cn(-c2cc(NC(=O)c3ccc(C)c(Nc4nccc(-c5cccnc5)n4)c3)cc(C(F)(F)F)c2)cn1` [AMN107]: in experiment [2] (FIG. 22), the “tumor cell growth of 32D/p210-Luc cells (quantitative)” value is listed as “inhibits tumor cell growth”. The “efficacy against 32D/p210-Luc cells in vivo (qualitative)” value in experiment [2] (five animals, nine day assay, FIG. 21) is given as “efficacious”.
With `CO[C@@H]1[C@H](N(C)C(=O)c2ccccc2)C[C@H]2O[C@]1(C)n1c3ccccc3c3c4c(c5c6ccccc6n2c5c31)C(=O)NC4` [PKC-412], the tumor cell size result in experiment [3] (mice bearing TS(4;11) MLL cells, FIG. 16 left graph) is “reduces tumor cell size”. Also, the “bioluminescent flux as compared to controls” value in experiment [3] (nude mice, TS(4;11)-LucNeo cells, 150 mg/kg/day over a two week period) is “constant bioluminescent flux”.
